Reference: ChEMBL document CHEMBL5331060, “Bisindole natural products: A vital source for the development of new anticancer drugs” (Eur J Med Chem, 2022)
In brackets after ≈: the same amount, converted by molar mass. One block for each compound: values may come before it.

Experiments:
Format in all cases: functional, cell-based
A549 [1] = assay: Antiproliferative activity against human A549 cells assessed as inhibition of cell growth incubated for 72 hrs by SRB assay; details: A549, 72 h
MCF7 [2] = assay: Antiproliferative activity against human MCF7 cells assessed as inhibition of cell growth incubated for 72 hrs by SRB assay; details: MCF7, 72 h
K562 = assay: Antiproliferative activity against human K562 cells assessed as inhibition of cell growth by MTT assay
MCF7 [3] = assay: Antiproliferative activity against human MCF7 cells assessed as inhibition of cell growth incubated for 48 hrs by MTT assay; details: MCF7, 48 h
SW480 = assay: Antiproliferative activity against human SW480 cells assessed as inhibition of cell growth incubated for 48 hrs by MTT assay; details: SW480, 48 h
A549 [4] = assay: Antiproliferative activity against human A549 cells assessed as inhibition of cell growth incubated for 48 hrs by MTT assay; details: A549, 48 h
HL-60 = assay: Antiproliferative activity against human HL-60 cells assessed as inhibition of cell growth incubated for 48 hrs by MTT assay; details: HL-60, 48 h
SMMC-7721 [5] = assay: Antiproliferative activity against human SMMC-7721 cells assessed as inhibition of cell growth incubated for 48 hrs by MTT assay; details: SMMC-7721, 48 h
A549 [6] = assay: Antiproliferative activity against human A549 cells assessed as inhibition of cell growth by MTT assay
AGS = assay: Antiproliferative activity against human AGS cells assessed as inhibition of cell growth incubated for 24 hrs by MTT assay
L1210 = assay: Antiproliferative activity against mouse L1210 cells assessed as inhibition of cell growth incubated for 24 hrs by MTT assay; details: L1210, 24 h
SMMC-7721 [7] = assay: Antiproliferative activity against human SMMC-7721 cells assessed as inhibition of cell growth incubated for 48 hrs by MTS assay; details: SMMC-7721, 48 h

- IC50 (A549 [1]): 10.9 µM
- IC50 (MCF7 [2]): 10.9 µM
Structure (SMILES): CC[C@@H]1CN(C)[C@H]2Cc3c([nH]c4ccccc34)[C@H](c3c(OC)ccc4c5c([nH]c34)[C@]3(C(=O)OC)C[C@@H]4C[C@H](CC)[C@@H]3N(CC5)[C@@H]4CC(C)=O)C[C@H]1[C@@H]2C(=O)OC

- IC50 (K562): 2.2 µM
Structure (SMILES): CC(=O)C[C@@H]1c2c([nH]c3ccccc23)[C@H](c2c[nH]c3ccccc23)[C@H]1C(C)=O

- IC50 (A549 [1]): > 10 µM
- IC50 (MCF7 [2]): < 10 µM
Structure (SMILES): CC[C@@H]1CN(C)[C@H]2Cc3c([nH]c4ccccc34)[C@H](c3cc4c5c([nH]c4cc3OC)[C@@]3(C(=O)OC)C[C@H]4C[C@@H](CC)[C@@H]3N(CC5)C4)C[C@H]1[C@@H]2C(=O)OC

- IC50 (A549 [1]): < 10 µM
- IC50 (MCF7 [2]): < 10 µM
Structure (SMILES): CC[C@@H]1CN(C)[C@H]2Cc3c([nH]c4ccccc34)[C@H](c3ccc4[nH]c5c(c4c3)CCN3C[C@@H]4C[C@@H](CC)[C@H]3[C@@H]5C4)C[C@H]1[C@@H]2C(=O)OC

- IC50 (MCF7 [3]): 4.7 µM
- IC50 (SW480): 10.3 µM
- IC50 (A549 [4]): 10.3 µM
- IC50 (HL-60): 10.3 µM
- IC50 (SMMC-7721 [5]): 10.3 µM
Structure (SMILES): C/C=C1/CN2COC[C@]3(C(=O)OC)[C@@H]1C[C@@H](c1c(OC)ccc4c1NC1[C@@]4(O)CCN4C[C@H]5C[C@H](CC)[C@H]4[C@@]1(C(=O)OC)C5)c1[nH]c4ccccc4c1C[C@]23C (stereo partly drawn)

- IC50 (A549 [1]): < 10 µM
- IC50 (MCF7 [2]): < 10 µM
Structure (SMILES): C/C=C1\CN(C)[C@H]2Cc3c([nH]c4ccccc34)[C@H](c3c(OC)ccc4c5c([nH]c34)[C@]3(C(=O)OC)C[C@@H]4C[C@H](CC)[C@@H]3N(CC5)[C@@H]4CC(C)=O)C[C@H]1[C@@H]2C(=O)OC

- IC50 (A549 [1]): < 10 µM
- IC50 (MCF7 [2]): < 10 µM
Structure (SMILES): C/C=C1/CN(C)[C@H]2Cc3c([nH]c4ccccc34)[C@H](c3ccc4[nH]c5c(c4c3)CCN3C[C@@H]4C[C@H](CC)[C@H]3[C@@H]5C4)C[C@H]1[C@@H]2C(=O)OC

- IC50 (K562): > 90 µM
- IC50 (A549 [6]): > 90 µM
Structure (SMILES): O=C(NCC(=O)c1c[nH]c2ccccc12)NC(=O)c1c[nH]c2cc(O)ccc12

- IC50 (MCF7 [3]): 3.24 µM
- IC50 (SW480): 3.24 µM
- IC50 (A549 [4]): 3.24 µM
- IC50 (HL-60): 3.24 µM
- IC50 (SMMC-7721 [5]): 3.24 µM
Structure (SMILES): CC[C@]12C=CCN3CCc4c(n(c5ccccc45)[C@@H](c4cc5c(cc4OC)NC4=C(C(=O)OC)C[C@]6([C@@H](C)OC(C)=O)CCCN7CC[C@@]45[C@@H]76)C1)[C@@H]32

- IC50 (AGS): 1.1 µg/mL (≈ 2.7 µM)
- IC50 (L1210): 1.1 µg/mL (≈ 2.7 µM)
Structure (SMILES): O=C1N[C@H](c2c[nH]c3ccccc23)CN=C1c1c[nH]c2cc(Br)ccc12

- IC50 (A549 [1]): < 10 µM
- IC50 (MCF7 [2]): < 10 µM
Structure (SMILES): CC[C@@H]1CN(C)[C@H]2Cc3c([nH]c4ccccc34)[C@H](c3cc4[nH]c5c(c4cc3OC)CCN3C[C@H]4C[C@H](CC)[C@H]3[C@@]5(C(=O)OC)C4)C[C@H]1[C@@H]2C(=O)OC

- IC50 (A549 [1]): 10.9 µM
- IC50 (MCF7 [2]): 10.9 µM
Structure (SMILES): CC[C@@H]1CN(C)[C@H]2Cc3c([nH]c4ccccc34)[C@H](c3ccc4[nH]c5c(c4c3)CCN3[C@H](CC(C)=O)[C@@H]4C[C@@H](CC)[C@H]3[C@]5(C(=O)OC)C4)C[C@H]1[C@@H]2C(=O)OC

- IC50 (SMMC-7721 [7]): 2.01 µM
Structure (SMILES): CC[C@]12C=CCN3CC[C@]4(C(=C(C(=O)OC)C1)Nc1cc(OC)c([C@@H]5[C@H]6O[C@H]6[C@@]6(CC)C=C(C(=O)OC)C7Nc8c(cc(O)c(OC)c8OC)[C@@]78CCN5[C@@H]68)cc14)[C@@H]32 (stereo partly drawn)

- IC50 (AGS): 1.1 µg/mL (≈ 2.26 µM)
- IC50 (L1210): 1.1 µg/mL (≈ 2.26 µM)
Structure (SMILES): O=C1NC[C@H](c2c[nH]c3cc(Br)ccc23)N=C1c1c[nH]c2cc(Br)ccc12 [HAMACANTHIN B]

- IC50 (MCF7 [3]): 2.9 µM
- IC50 (SW480): 2.9 µM
- IC50 (A549 [4]): 2.9 µM
- IC50 (HL-60): 2.9 µM
- IC50 (SMMC-7721 [5]): 2.9 µM
Structure (SMILES): C/C=C1/CN(C)[C@@]2(C)Cc3c([nH]c4ccccc34)[C@H](c3c(OC)ccc4c3NC3[C@@]4(O)CCN4C[C@H]5C[C@H](CC)[C@H]4[C@@]3(C(=O)OC)C5)C[C@H]1[C@]2(COC(C)=O)C(=O)OC (stereo partly drawn)

- IC50 (A549 [1]): < 10 µM
- IC50 (MCF7 [2]): < 10 µM
Structure (SMILES): C/C=C1/CN(C)[C@H]2Cc3c([nH]c4ccccc34)[C@H](c3ccc4[nH]c5c(c4c3)CCN3[C@H]4[C@@H](CC)C[C@H](C[C@@]54C(=O)OC)[C@@H]3CC(C)=O)C[C@H]1[C@@H]2C(=O)OC

- IC50 (K562): 24.2 µM
- IC50 (A549 [6]): 24.2 µM
Structure (SMILES): CO[C@@]1(C(=O)c2c[nH]c3cc(O)ccc23)N=C(c2c[nH]c3ccccc23)C(=O)N1

- IC50 (A549 [1]): < 10 µM
- IC50 (MCF7 [2]): < 10 µM
Structure (SMILES): CC[C@@H]1CN(C)[C@H]2Cc3c([nH]c4ccccc34)[C@H](c3ccc4c5c([nH]c4c3)[C@@H]3C[C@@H]4C[C@H](CC)[C@@H]3N(CC5)[C@@H]4CC(C)=O)C[C@H]1[C@@H]2C(=O)OC

- IC50 (MCF7 [3]): 2.9 µM
- IC50 (SW480): 2.9 µM
- IC50 (A549 [4]): 2.9 µM
- IC50 (HL-60): 2.9 µM
- IC50 (SMMC-7721 [5]): 2.9 µM
Structure (SMILES): C/C=C1/CN2COC[C@]3(C(=O)OC)[C@@H]1C[C@@H](c1cccc4c5c([nH]c14)[C@]1(C(=O)OC)C[C@@H]4C[C@H](CC)[C@@H]1N(CC5)[C@@H]4CC(C)=O)c1[nH]c4ccccc4c1C[C@]23C

- IC50 (A549 [1]): > 10 µM
- IC50 (MCF7 [2]): < 10 µM
Structure (SMILES): CC[C@@H]1CN(C)[C@H]2Cc3c([nH]c4ccccc34)[C@H](c3ccc4c5c([nH]c4c3)[C@]3(C(=O)OC)C[C@@H]4C[C@H](CC)[C@@H]3N(CC5)C4)C[C@@H]1[C@@H]2C(=O)OC

- IC50 (A549 [1]): 1.19 µM
- IC50 (MCF7 [2]): 2.25 µM
Structure (SMILES): CC[C@@H]1CN(C)[C@H]2Cc3c([nH]c4ccccc34)[C@H](c3ccc4c5c([nH]c4c3)[C@]3(C(=O)OC)C[C@@H]4C[C@H](CC)[C@@H]3N(CC5)[C@@H]4CCOC)C[C@H]1[C@@H]2C(=O)OC

- IC50 (A549 [1]): < 10 µM
- IC50 (MCF7 [2]): < 10 µM
Structure (SMILES): C/C=C1\CN(C)[C@H]2Cc3c([nH]c4ccccc34)[C@H](c3c(OC)ccc4c5c([nH]c34)[C@]3(C(=O)OC)C[C@@H]4C[C@H](CC)[C@@H]3N(CC5)C4)C[C@H]1[C@@H]2C(=O)OC

- IC50 (MCF7 [3]): 3.24 µM
- IC50 (SW480): 3.24 µM
- IC50 (A549 [4]): 3.24 µM
- IC50 (HL-60): 3.24 µM
- IC50 (SMMC-7721 [5]): 3.24 µM
Structure (SMILES): CC[C@]12CCCN3CCc4c(n(c5ccccc45)[C@@H](c4cc5c(cc4OC)NC4=C(C(=O)OC)C[C@]6(CC)CCCN7CC[C@@]45[C@@H]76)C1)[C@@H]32

- IC50 (AGS): 1.1 µg/mL (≈ 2.25 µM)
- IC50 (L1210): 1.1 µg/mL (≈ 2.25 µM)
Structure (SMILES): O=C1N[C@H](c2c[nH]c3cc(Br)ccc23)CN[C@H]1c1c[nH]c2cc(Br)ccc12

- IC50 (SMMC-7721 [7]): 1.72 µM
Structure (SMILES): CC[C@]12C=CCN3CC[C@]4(C(=C(C(=O)OC)C1)Nc1cc5c(cc14)[C@@H]1[C@H](O5)[C@@H](O)[C@@]4(CC)C=C(C(=O)OC)C5Nc6c(ccc(OC)c6O)[C@@]56CCN1[C@@H]46)[C@@H]32 (stereo partly drawn)

Structure (SMILES): C/C=C1\CN(C)[C@H]2Cc3c([nH]c4ccccc34)[C@H](c3cc4[nH]c5c(c4cc3OC)CCN3C[C@H]4C[C@H](CC)[C@H]3[C@H]5C4)C[C@H]1[C@@H]2C(=O)OC
- IC50 (A549 [1]): < 10 µM
- IC50 (MCF7 [2]): < 10 µM

- IC50 (MCF7 [3]): 3.24 µM
- IC50 (SW480): 3.24 µM
- IC50 (A549 [4]): 3.24 µM
- IC50 (HL-60): 3.24 µM
- IC50 (SMMC-7721 [5]): 3.24 µM
Structure (SMILES): CC[C@]12C=CCN3CCc4c(n(c5cc(OC)ccc45)[C@@H](c4cc5c(cc4OC)NC4=C(C(=O)OC)C[C@]6(CC)CCCN7CC[C@@]45[C@@H]76)C1)[C@@H]32

- IC50 (AGS): 1.1 µg/mL (≈ 2.61 µM)
- IC50 (L1210): 1.1 µg/mL (≈ 2.61 µM)
Structure (SMILES): O=C(c1nc(-c2c[nH]c3cc(Br)ccc23)c[nH]1)c1c[nH]c2cc(O)ccc12 [BROMOTOPSENTIN]

- IC50 (A549 [1]): > 10 µM
- IC50 (MCF7 [2]): < 10 µM
Structure (SMILES): CC[C@@H]1CN(C)[C@H]2Cc3c([nH]c4ccccc34)[C@H](c3cc4[nH]c5c(c4cc3OC)CCN3[C@H](CC(C)=O)[C@H]4C[C@H](CC)[C@H]3[C@@]5(C(=O)OC)C4)C[C@H]1[C@@H]2C(=O)OC
